In data set [1] the test system is 3T3-L1. The data set is described as follows: Induction of adipogenesis in mouse 3T3-L1 cells assessed as fold increase in OD value at 10 uM incubated with media replacement for every 3 days and measured for day 9 in presence of insulin by Oil Red O staining based analysis. It is filed as functional. As to conditions: time 9 day.
Data set [2] has as its system 3T3-L1. The data set is described as follows: Cytotoxicity against mouse 3T3-L1 cells assessed as reduction in cell viability at 10 uM incubated for 3 days by MTT assay. The data set is classed as toxicity, cell-based. As to conditions: 3t3-l1, 72 h, time 3 day.
Data set [3] relates to 3T3-L1. The experiment in a line: Induction of adipogenesis in mouse 3T3-L1 cells assessed as increase in lipid droplets formation incubated with media replacement for every 3 days and measured at day 9 in presence of insulin by Oil Red O staining based analysis. The data set is classed as functional, cell-based. The conditions noted are these: dose 1-10 µM, time 9.0 day.

As to `CCCCCCCCC/C(C)=C/[C@@H](C/C=C/CCC(=O)N(C)[C@@H](COC)C(=O)N1CCC[C@H]1C(C)=O)OC`, the “fold change (FC)” value in the data set on 3T3-L1 [1] is listed as 2.3. Besides, the Activity result was “Non-Toxic” with 3T3-L1 [2] and “Dose-Dependent Effect” with 3T3-L1 [3].

As for `CCCCCC/C=C/C/C(C)=C/[C@@H](C/C=C/CCC(=O)N(C)[C@@H](COC)C(=O)N1CCC[C@H]1C(=O)CC)OC`, the “fold change (FC)” value in the data set on 3T3-L1 [1] is 2.1. For the same compound, the Activity entry in the data set with 3T3-L1 [2] was “Non-Toxic”; in the data set on 3T3-L1 [3] it was “Dose-Dependent Effect”.

The record behind these values is ChEMBL document CHEMBL5360587, “Differentiation-Promoting Effects of Okeaniamides A and B from an Okeania sp. Marine Cyanobacterium on Preadipocytes” (J Nat Prod, 2023).
